In ChEMBL document CHEMBL3431459, “Roche carnitine palmitoyltransferase modulator screening data (supplementary data associated with the publication CHEMBL2216752)”:
In brackets after ≈: the same amount, converted by molar mass.

Key:
[1] = SUPPLEMENTARY: Lyophilisation Solubility Assay (LYSA); format: physicochemical; details: read-out: Kinetic_solubility
[2] = biological target: T1, Carnitine O-palmitoyltransferase 2, mitochondrial (Homo sapiens, UniProt P23786); assay: (§1) SUPPLEMENTARY: Inhibition of Carnitine palmitoyltransferase 2
T1 sequence (P23786 whole entry): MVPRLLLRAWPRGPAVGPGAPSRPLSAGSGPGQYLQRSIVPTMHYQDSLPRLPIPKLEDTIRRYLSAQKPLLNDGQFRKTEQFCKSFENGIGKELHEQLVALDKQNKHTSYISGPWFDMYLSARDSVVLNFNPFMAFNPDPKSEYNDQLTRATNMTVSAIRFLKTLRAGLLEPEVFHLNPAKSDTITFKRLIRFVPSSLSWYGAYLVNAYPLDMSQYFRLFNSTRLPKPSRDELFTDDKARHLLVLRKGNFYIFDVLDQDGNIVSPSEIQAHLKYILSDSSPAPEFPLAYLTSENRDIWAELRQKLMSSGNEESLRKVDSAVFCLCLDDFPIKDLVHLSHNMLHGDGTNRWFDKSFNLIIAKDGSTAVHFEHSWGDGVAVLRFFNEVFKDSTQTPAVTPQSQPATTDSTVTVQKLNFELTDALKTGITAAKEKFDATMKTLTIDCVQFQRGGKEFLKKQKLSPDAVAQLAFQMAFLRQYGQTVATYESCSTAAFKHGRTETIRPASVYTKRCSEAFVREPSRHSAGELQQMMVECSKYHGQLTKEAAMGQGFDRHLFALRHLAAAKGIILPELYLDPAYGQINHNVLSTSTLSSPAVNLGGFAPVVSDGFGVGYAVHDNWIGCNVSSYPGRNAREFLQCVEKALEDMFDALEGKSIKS

[3] = biological target: T2, Carnitine O-palmitoyltransferase 2, mitochondrial (Rattus norvegicus, UniProt P18886); assay: as §1
T2 sequence (P18886 whole entry): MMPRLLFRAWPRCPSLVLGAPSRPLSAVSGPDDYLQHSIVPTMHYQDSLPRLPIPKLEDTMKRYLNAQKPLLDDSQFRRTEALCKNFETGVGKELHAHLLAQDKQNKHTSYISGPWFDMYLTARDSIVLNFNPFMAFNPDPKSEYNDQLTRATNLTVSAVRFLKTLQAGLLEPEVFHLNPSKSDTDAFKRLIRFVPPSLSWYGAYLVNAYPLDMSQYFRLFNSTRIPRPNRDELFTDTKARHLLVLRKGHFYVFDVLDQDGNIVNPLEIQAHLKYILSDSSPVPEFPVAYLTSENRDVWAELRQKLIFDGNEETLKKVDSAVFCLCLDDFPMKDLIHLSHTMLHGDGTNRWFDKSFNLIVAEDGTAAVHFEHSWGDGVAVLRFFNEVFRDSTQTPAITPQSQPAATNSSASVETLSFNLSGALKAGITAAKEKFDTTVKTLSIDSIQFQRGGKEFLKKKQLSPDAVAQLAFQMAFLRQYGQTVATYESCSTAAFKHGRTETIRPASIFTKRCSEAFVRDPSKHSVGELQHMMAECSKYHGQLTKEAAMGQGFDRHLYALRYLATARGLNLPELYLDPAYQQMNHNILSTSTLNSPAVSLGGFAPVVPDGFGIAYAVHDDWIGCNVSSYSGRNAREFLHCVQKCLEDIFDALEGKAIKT

[4] = biological target: T3, Carnitine O-palmitoyltransferase 1, liver isoform (Homo sapiens, UniProt P50416); assay: (§2) SUPPLEMENTARY: Inhibition of Carnitine palmitoyltransferase 1, liver isoform
T3 sequence (P50416 whole entry): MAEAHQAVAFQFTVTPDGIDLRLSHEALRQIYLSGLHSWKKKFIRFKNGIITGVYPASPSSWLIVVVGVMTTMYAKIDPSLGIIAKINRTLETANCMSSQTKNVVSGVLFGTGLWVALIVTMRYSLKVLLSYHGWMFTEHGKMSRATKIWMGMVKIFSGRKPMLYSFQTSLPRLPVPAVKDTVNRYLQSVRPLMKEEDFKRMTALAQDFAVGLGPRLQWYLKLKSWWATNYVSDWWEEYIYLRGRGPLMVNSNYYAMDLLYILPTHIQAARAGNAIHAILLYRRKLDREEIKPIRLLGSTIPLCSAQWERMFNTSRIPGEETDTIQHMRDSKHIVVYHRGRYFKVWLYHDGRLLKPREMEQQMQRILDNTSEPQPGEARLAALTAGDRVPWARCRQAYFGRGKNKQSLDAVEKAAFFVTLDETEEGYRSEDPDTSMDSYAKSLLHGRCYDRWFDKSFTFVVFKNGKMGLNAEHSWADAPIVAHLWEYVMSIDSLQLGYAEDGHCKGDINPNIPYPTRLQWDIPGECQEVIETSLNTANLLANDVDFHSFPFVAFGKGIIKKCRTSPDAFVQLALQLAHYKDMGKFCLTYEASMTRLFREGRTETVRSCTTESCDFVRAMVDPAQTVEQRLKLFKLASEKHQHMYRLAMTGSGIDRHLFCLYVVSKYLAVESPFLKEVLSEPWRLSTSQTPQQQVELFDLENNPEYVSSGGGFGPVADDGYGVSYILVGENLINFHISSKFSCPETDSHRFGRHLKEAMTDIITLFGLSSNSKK

[5] = biological target: T4, Carnitine O-palmitoyltransferase 1, liver isoform (Rattus norvegicus, UniProt P32198); assay: as §2
T4 sequence (P32198 whole entry): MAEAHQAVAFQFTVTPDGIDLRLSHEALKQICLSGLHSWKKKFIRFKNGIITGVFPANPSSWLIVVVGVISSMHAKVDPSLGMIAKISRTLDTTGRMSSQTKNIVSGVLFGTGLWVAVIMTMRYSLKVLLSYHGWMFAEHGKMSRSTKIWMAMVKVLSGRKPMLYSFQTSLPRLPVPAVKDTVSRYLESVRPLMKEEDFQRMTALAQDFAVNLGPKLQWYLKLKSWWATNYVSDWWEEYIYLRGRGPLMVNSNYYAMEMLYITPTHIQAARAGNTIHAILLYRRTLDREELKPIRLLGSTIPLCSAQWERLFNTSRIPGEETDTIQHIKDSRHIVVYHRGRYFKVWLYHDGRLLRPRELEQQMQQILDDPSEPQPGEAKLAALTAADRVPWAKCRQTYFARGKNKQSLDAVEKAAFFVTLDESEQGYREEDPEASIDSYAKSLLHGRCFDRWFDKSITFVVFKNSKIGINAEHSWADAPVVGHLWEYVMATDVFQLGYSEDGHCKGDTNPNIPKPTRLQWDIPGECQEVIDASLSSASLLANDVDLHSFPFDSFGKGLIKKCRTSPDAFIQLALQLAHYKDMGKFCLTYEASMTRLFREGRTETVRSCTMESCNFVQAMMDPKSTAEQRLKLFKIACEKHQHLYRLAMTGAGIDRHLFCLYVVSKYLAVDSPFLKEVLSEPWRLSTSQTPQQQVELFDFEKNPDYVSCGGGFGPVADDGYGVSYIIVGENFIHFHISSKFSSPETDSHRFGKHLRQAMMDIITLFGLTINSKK

[6] = biological target: T5, Carnitine O-palmitoyltransferase 1, muscle isoform (Homo sapiens, UniProt Q92523); assay: SUPPLEMENTARY: Inhibition of Carnitine palmitoyltransferase 1, muscle isoform; parameters: species or system Muscle tissue
T5 sequence (Q92523 whole entry): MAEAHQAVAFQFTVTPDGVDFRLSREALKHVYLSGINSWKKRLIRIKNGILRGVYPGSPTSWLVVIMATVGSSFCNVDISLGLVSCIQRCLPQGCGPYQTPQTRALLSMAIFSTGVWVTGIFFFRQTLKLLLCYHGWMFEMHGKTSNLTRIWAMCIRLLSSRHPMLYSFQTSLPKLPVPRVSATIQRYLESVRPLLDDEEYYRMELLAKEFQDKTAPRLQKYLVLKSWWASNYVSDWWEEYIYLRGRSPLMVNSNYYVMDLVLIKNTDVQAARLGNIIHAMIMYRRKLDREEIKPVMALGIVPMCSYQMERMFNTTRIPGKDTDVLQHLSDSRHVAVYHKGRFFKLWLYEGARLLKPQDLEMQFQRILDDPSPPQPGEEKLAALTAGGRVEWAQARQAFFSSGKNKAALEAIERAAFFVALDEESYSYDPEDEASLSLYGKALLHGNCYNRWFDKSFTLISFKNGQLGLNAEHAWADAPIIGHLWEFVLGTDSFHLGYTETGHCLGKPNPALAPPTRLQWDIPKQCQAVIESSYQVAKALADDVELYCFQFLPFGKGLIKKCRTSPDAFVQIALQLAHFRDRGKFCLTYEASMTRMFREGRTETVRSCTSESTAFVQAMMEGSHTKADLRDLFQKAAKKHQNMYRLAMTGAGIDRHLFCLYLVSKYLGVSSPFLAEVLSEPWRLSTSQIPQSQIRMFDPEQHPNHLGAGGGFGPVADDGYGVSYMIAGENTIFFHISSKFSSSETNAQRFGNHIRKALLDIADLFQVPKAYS

[7] = SUPPLEMENTARY: PAMPA permeability assay; format: physicochemical; details: read-out: Permeability
[8] = SUPPLEMENTARY: Lipophilicity (log D) Determination by high-throughput shake-flask; format: physicochemical; details: octanol/water

Row | Structure (SMILES) | solubility kinetic [1] | IC50 [2] | IC50 [3] | IC50 [4] | IC50 [5] | IC50 [6] | Papp [7] | logD [8]
1 | COc1ccc(Cl)cc1S(=O)(=O)N1CCOc2c(Cl)cc(C(=O)Nc3ccc(C(=O)O)cc3)cc21 | 1 µg/mL (≈ 1.86 µM) | 578 nM | 28200 nM | 77 nM | 49.4 nM | 2610 nM | 2.19 ×10⁻⁶ cm/s | 3.15
2 | COc1ccc(Cl)cc1S(=O)(=O)N1CCOc2c(Cl)cc(C(=O)Nc3nc(CC(=O)O)cs3)cc21 | 12 µg/mL (≈ 21.5 µM) | > 100000 nM | > 100000 nM | 50.3 nM | 54 nM | 1180 nM | 2.6 ×10⁻⁶ cm/s | 2.28
3 | COc1ccc(Cl)cc1S(=O)(=O)N1CCc2c(C)cc(C(=O)Nc3ccc(C(=O)O)cc3)cc21 | 13 µg/mL (≈ 26 µM) | 326 nM | 345 nM | 77.5 nM | 56 nM | 5460 nM | 2.01 ×10⁻⁶ cm/s | 2.58
4 | COc1ccc(Cl)cc1S(=O)(=O)N1CCSc2ccc(C(=O)Nc3ccc(CC(=O)O)cc3)cc21 | 232 µg/mL (≈ 435 µM) | > 100000 nM | > 100000 nM | 120 nM | 155 nM | 792 nM | 5.1 ×10⁻⁶ cm/s | 0.61
5 | COc1ccc(Cl)cc1S(=O)(=O)c1nn(C)c2ccc(C(=O)Nc3ccc(CC(=O)O)cc3)cc12 | 70 µg/mL (≈ 136 µM) | > 100000 nM | > 100000 nM | 166 nM | 125 nM | 1730 nM | 0.39 ×10⁻⁶ cm/s | 0.12
6 | COc1ccc(Cl)cc1S(=O)(=O)N(C)c1cc(C(=O)Nc2ccc(C(=O)O)cc2)cc2c1OCO2 | 13 µg/mL (≈ 25.1 µM) | 17800 nM | 27100 nM | 133 nM | 122 nM | 1750 nM | 2.06 ×10⁻⁶ cm/s | 0.26
7 | COc1ccc(Cl)cc1S(=O)(=O)N1CCS(=O)(=O)c2ccc(C(=O)Nc3ccc(C(=O)O)c(Cl)c3)cc21 | 45 µg/mL (≈ 76.9 µM) | 5560 nM | 15700 nM | 204 nM | 103 nM | 8030 nM | 0.06 ×10⁻⁶ cm/s | -0.37

Results, then the molecule that gave them:

Row | solubility kinetic [1] | IC50 [2] | IC50 [3] | IC50 [4] | IC50 [5] | IC50 [6] | Papp [7] | logD [8] | Structure (SMILES)
8 | 81 µg/mL (≈ 180 µM) | 489 nM | 1410 nM | 63.6 nM | 41.6 nM | > 100000 nM | 11.5 ×10⁻⁶ cm/s | 2.58 | O=C([C@H]1CCCCN1C(=O)COc1ccccc1)N1Cc2ccc(O[C@@H]3CCOC3)cc2C1
9 | 1 µg/mL (≈ 1.84 µM) | > 100000 nM | > 100000 nM | 61 nM | 152 nM | 134 nM | 0.93 ×10⁻⁶ cm/s | 2.22 | COc1ccc(Cl)cc1S(=O)(=O)N1CCOc2ccc(C(=O)Nc3ccc(-c4noc(=O)[nH]4)cc3)cc21
10 | 40 µg/mL (≈ 89.6 µM) | 51500 nM | > 100000 nM | 96.3 nM | 456 nM | > 100000 nM | 4.87 ×10⁻⁶ cm/s | 2.42 | O=C(COc1ccccc1)N1CCCC[C@@H]1c1nc(-c2cccc(-n3cn[nH]c3=O)c2)no1
11 | 17 µg/mL (≈ 42.1 µM) | 14500 nM | > 100000 nM | 167 nM | 334 nM | 78100 nM | 6.32 ×10⁻⁶ cm/s | 2.75 | O=C(COc1ccccc1)N1CCCC[C@@H]1c1nc(-c2ccc3nccn3c2)no1
12 | 103 µg/mL (≈ 226 µM) | 23900 nM | 82800 nM | 146 nM | 175 nM | > 100000 nM | 2.56 ×10⁻⁶ cm/s | 2.27 | CS(=O)(=O)Nc1cccc(-c2n[nH]c([C@H]3CCCCN3C(=O)COc3ccccc3)n2)c1
13 | 251 µg/mL (≈ 489 µM) | > 100000 nM | > 100000 nM | 7.1 nM | 3 nM | 9020 nM | 0.39 ×10⁻⁶ cm/s | 0.56 | COc1ccc(Cl)cc1S(=O)(=O)c1cn(CCC(=O)O)c2ccc(C(=O)Nc3ccccc3)cc12
14 | 8 µg/mL (≈ 18.6 µM) | 41800 nM | 39800 nM | 164 nM | 239 nM | > 100000 nM | 0.261 ×10⁻⁶ cm/s | 1.98 | O=C(COc1ccccc1)N1CCCC[C@@H]1c1nc(-c2ccc(-c3cnc[nH]3)cc2)no1
